We go through seven compounds from patent US5480905A, “Benzodioxane derivatives” (Chugai Seiyaku Kabushiki Kaisha, priority 1991, dated 1996).

Entries after “also recorded” stand apart in the source; their conditions may differ. Where two headings read alike, the source gives them in different places.

The conditions of data set [1]: in vivo; cited from earlier work.
The subject of data set [2] is S.D. line male rats. Put plainly: Antianxiety effect, water drinking under punishment (Vogel). As to conditions: peroral 20 mg/kg; for change in vivo at 20 mg/kg: Rattus norvegicus, po, read-out: Antianxiety effect, Efficacy. The class given is in vivo, rat. Details: Antianxiety effect / Antianxiety effect, longevity: unit not given here. The procedure: Antianxiety test was conducted in accordance with a method adapted from the method of Vogel et al. (Psychopharmacol., 21, 1-7, 1971). Stated more specifically, S.D. line male rats weighing 250-300 g were entirely kept from water for 24 h and then placed in a concrete experimental box. […] The bottom of the box was made of a stainless steel grid, from which electric shock (0.2 mA, 0.5 sec) could be applied to the limbs of rats. The test schedule was as follows: first, the rats were acclimatized to the experimental box and trained for drinking water; this was done for 3 min without electric shock. The quantity of water drunk by the rats was then measured (under non-punishment). Then, the rats were kept from drinking water for 24 h. Thereafter, the quantity of water drunk by each rat was measured (before administration of test compound) under such conditions that an electric shock was applied each time a rat drank one water drop (under punishment).Thirty minutes later, a test drug was administered perorally and after an additional 20 min, the quantity of water drunk by each rat was again measured under punishment (after administration of test compound). The quantity of water drunk by rats will decrease under punishment but it is known that the initial level can be restored by administering an antianxiety agent.
The antianxiety effect of a test compound was calculated by the following formula: [formula]
(§1) The procedure of Test Examples 2 and 3 were repeated except that test compounds were administered perorally in a dose of 10 mg/kg.
(§2) The procedures of Test Example 2 and 3 were repeated, except that test compounds were administered perorally in a dose of 20 mg/kg to check the longevity of their antianxiety and antidepressant effects for 0.5, 2 and 4 h.

Data set [3] has as its system S.D. line male rats. Briefly: Antidepressant effect, compelled swim test (Porsolt), time over which rats remain motionless. The class given is in vivo, rat. The conditions noted are these: peroral 20 mg/kg; for inhibition in vivo at 20 mg/kg: Rattus norvegicus, po, 0.5 h, 30 min before swim, read-out: Antidepressant effect, Efficacy. The procedure: An antidepression test was conducted in accordance with the method of Porsolt et al. (Europ. J. Pharmacol., 47, 379-391, 1978). Stated more specifically, 7-wk old S.D. line male rats were placed in a glass cylinder (18 cm^.phi. ×40 cm^H) for 15 min. The cylinder was filled with water (25° C.) to a depth of 15 cm. Thereafter, the rats were placed in a hot environment (32° C.) for 15 min before they were returned to the cage. Twenty-four hours later, the rats were compelled again to swim in the same cylinder for 5 min and the total time over which the rats remained motionless was measured. A test drug was administered perorally to each animal 30 min before it was compelled to swim for 5 min. Antidepressant agents are known to be capable of specifically reducing the time over which the rats would remain motionless (Psyehopharmaeol., 83, 1-16, 1984, and ibid., 94, 147-160, 1988). The antidepressant effect was calculated by the following formula: [formula]
as §1, §2

The next data set concerns the target T1, serotonin 1A receptor (Rattus norvegicus, UniProt P19327).
T1 construct: the cortex and hippocampal tissue were extracted from the brain; from tissue; host or cells: brain cortex and hippocampus of 7-week-old male S.D. rats, washed membrane homogenate
T1 sequence (P19327 1-422): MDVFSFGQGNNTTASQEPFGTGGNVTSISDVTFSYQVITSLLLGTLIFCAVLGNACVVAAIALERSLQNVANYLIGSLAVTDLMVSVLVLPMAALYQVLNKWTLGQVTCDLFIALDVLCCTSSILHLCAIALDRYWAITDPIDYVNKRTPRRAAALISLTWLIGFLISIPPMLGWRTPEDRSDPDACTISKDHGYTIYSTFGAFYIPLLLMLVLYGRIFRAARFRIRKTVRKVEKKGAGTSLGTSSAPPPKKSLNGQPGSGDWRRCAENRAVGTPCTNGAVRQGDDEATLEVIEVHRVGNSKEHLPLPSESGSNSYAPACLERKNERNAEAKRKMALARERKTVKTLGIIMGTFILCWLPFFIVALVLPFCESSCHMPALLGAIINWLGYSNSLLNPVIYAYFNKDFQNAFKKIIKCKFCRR
Put plainly: Serotonin 1A receptor binding experiment (3H-8-OH-DPAT). The conditions noted are these: rat cortex and hippocampal tissue, 0.5 nM 3H-8-OH-DPAT, IC50 in M. The procedure:
(§3) Affinity for intracerebral serotonin 1A and serotonin 2 receptor was checked in accordance with the method of Hall et al. (J. Neurochem., 44, 1685-1695, 1985) and the method of Leysen et al. (Mol. Pharmacol., 21, 301-314, 1982).
(§4) Stated more specifically, the cortex and hippocampal tissue were extracted from the brain of 7-wk old S.D. line male rats, mixed with 20 volumes of Tris-HCl buffer (50 mM, pH 7.7) and homogenized with a Teflon homogenizer. Thereafter, the homogenate was centrifuged at 39800×g for 20 min and the supernatant was discarded. Forty volumes of a buffer were added to the precipitate and the mixture was homogenized with a Polytron homogenizer, with the homogenate being centrifuged under the same condition as set forth above. The same procedure was repeated two more times and the final precipitate was homogenized with 40 volumes of a buffer; thereafter, the homogenate was stored at least overnight at -80° C. On the day when binding experiments were to be conducted, the homogenate was thawed at room temperature and incubated at 37° C. for 20 min to remove the endogenous serotonin.
(§5) Thereafter, centrifugation was conducted at 39800×g for 20 min and 40 volumes of a buffer were added to the precipitate, followed by homogenization. This procedure was repeated three times; to the final precipitate, a buffer was added in 65 volumes for the case of serotonin 1A receptor and in 80 volumes for the case of serotonin 2 receptor and the mixture was homogenized in preparation for the binding experiments that are described below. All procedures of experimentation except storage in a frozen state and thawing at room temperature were conducted at 4° C. or below.
A reaction solution containing 0.5 nM (final concentration) of 3H-8-hydroxy-2-(di-n-propylamino)tetralin (8-OH-DPAT), […] and 500 μl of brain homogenate in 1.0 ml (final volume) of a buffer was incubated at 25° C. for 30 min. Thereafter, the reaction solution was filtered by rapid passage through a glass filler. The filter was washed rapidly with an ice-cooled buffer (3 ml) three times, put into a scintillation vial together with a scintillation cocktail, and left to stand overnight at 4° C. On the next day, the vial was agitated well and measurements were conducted with a scintillation counter. To determine the amount of specific binding, the amount of binding in the presence of excess unlabeled serotonin (10 μM) was subtracted from the total amount of binding. As an index for the affinity of a test compound for either receptor, the concentration at which the specific binding of ^3 H-DPAT was inhibited by 50% (IC50, M) was determined using computer software EBDA/LIGAND (Biosoft).

Data set [4] deals with S.D. line male rats. Briefly: Sedative action, amount of spontaneous movement (Animex). The class given is in vivo, rat. As to conditions: for Amount of Spontaneous Movement: control 405.2 ± 47.7. As for the experimental part: Seven-week old male S.D. line rats were administered a test drug perorally and after the passage of 30 min, the amount of spontaneous movement of the rats was measured for 10 min by means of Animex.

In the next data set the target is T2, serotonin 2 receptor (Rattus norvegicus, UniProt P14842).
T2 construct: the cortex and hippocampal tissue were extracted from the brain; from tissue; host or cells: brain cortex and hippocampus of 7-week-old male S.D. rats, washed membrane homogenate
Briefly: Serotonin 2 receptor binding experiment (3H-ketancerine). The conditions noted are these: rat cortex and hippocampal tissue; 0.5 nM 3H-ketancerine; IC50 in M; read-out: -logIC50 5-HT2 (converted). The procedure:
as §3, §4, §5
A reaction solution containing 0.5 nM (final concentration) of ^3 H-ketancerine and 500 μl of brain homogenate in 1.0 ml (final volume) of a buffer was incubated at 30° C. for 30 min. Subsequent procedures were the same as in the serotonin 1A receptor binding experiment and IC50 (M) was determined accordingly. To determine the amount of specific binding, the amount of binding in the presence of excess unlabelled methysergide ([…]) was subtracted from the total amount of binding.

Data set [5] concerns intracerebral serotonin 2 receptor. The conditions noted are these: continuous administration; cited from earlier work.
The subject of data set [6] is apomorphine induced stereotypic behavior. Briefly: Antidopamine action, apomorphine induced stereotypic behavior. It is filed as in vivo, rat. The conditions noted are these: for Apomorphine Induced Stereotypic Behavior, sum of scores: maximum of 24. The procedure:
Seven-week old male S.D. line rats were administered a test drug perorally and after the passage of 30 min, the dopamine agonist apomorphine was injected subcutaneously in an amount of 0.5 mg/kg. For the subsequent 5-30 min period, the intensity of stereotypic behavior that was induced in the rats by apomorphine was measured six times at 5-min intervals by a scoring method and the sum of the scores was determined (for a maximum of 24).

Where [7] appears, read: read-out: -logIC50 5-HT1A (converted).

T2 sequence (P14842 whole entry): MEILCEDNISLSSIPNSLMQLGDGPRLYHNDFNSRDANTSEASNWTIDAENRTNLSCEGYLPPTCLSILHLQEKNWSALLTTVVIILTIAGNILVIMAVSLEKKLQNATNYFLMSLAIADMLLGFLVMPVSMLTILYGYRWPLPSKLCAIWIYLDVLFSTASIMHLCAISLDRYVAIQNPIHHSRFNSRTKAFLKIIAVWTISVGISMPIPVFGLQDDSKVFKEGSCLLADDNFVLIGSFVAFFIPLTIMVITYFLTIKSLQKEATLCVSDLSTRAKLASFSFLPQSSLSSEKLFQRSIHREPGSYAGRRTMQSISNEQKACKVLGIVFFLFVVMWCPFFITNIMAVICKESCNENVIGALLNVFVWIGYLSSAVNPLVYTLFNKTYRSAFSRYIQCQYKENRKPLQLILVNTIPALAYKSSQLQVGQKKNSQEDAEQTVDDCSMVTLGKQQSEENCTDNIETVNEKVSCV

As to `CC1(C)CC(=O)N(CCCCN2CCN(c3ncccn3)CC2)C(=O)C1` [Gepirone], in data set [1], the “Antianxiety/antidepressant action (words, background)” value was “only weak antidepressant and antianxiety effects; also recorded: both antianxiety and antidepressant effects”; the “Side effects (words, background)” value is on record as “either lower ultromotivity (probably due to the dopamine antagonistic action) or serotonin syndrome”.
As to `O=C1CC2(CCCC2)CC(=O)N1CCNCC1COc2ccccc2O1` (centres unmarked) [MDL-73005, reference compound], the change in vivo at 20 mg/kg in the data set with S.D. line male rats [2] is 67.6 ± 5.5%. Further, the “Antianxiety effect, longevity” value in the data set on S.D. line male rats [2] (0.5 h after administration) was 44.9; in the data set on S.D. line male rats [2] (2.0 h after administration) it was 17.0; in the data set on S.D. line male rats [2] (4.0 h after administration), 8.1. The inhibition in vivo at 20 mg/kg with S.D. line male rats [3] turned out to be 28.3 ± 10.9%. In addition, the “Antidepressant effect” value in the data set with S.D. line male rats [3] is “extremely weak antidepressant effect”. Besides, the IC50 at serotonin 1A receptor (setting [7]) is 36.3 nM; on serotonin 2 receptor, over 1000 nM. Moreover, the “Amount of Spontaneous Movement” value with S.D. line male rats [4] (20 mg/kg peroral) was determined as 395.8 Counts/10 min; in the data set with S.D. line male rats [4] (40 mg/kg peroral) it was 331.5 Counts/10 min; in the data set with S.D. line male rats [4] (60 mg/kg peroral), 335.0 Counts/10 min. In addition, in the data set on S.D. line male rats [4] (peroral 20-60 mg/kg), the “Sedative action / spontaneous movement” value is reported as “no appreciable sedative action”.
`O=C1c2ccccc2S(=O)(=O)N1CCCCN1CCN(c2ncccn2)CC1` [Ipsapirone]: the “intracerebral serotonin 2 receptor (words, background)” value in data set [5] was “decrease in the intracerebral serotonin 2 receptor”. Besides, in data set [1], the “Antianxiety/antidepressant action (words, background)” value was “only weak antidepressant and antianxiety effects; also recorded: both antianxiety and antidepressant effects”; the “Side effects (words, background)” value is listed as “either lower ultromotivity (probably due to the dopamine antagonistic action) or serotonin syndrome”.
As to `O=C1C2C3CCC(C3)C2C(=O)N1CCCCN1CCN(c2ncccn2)CC1` (centres unmarked) [SM-3997, reference compound], the change in vivo at 20 mg/kg with S.D. line male rats [2] was 48.5 ± 15.8%. The inhibition in vivo at 20 mg/kg with S.D. line male rats [3] was -10.5 ± 10.6%. Besides, the IC50 on serotonin 1A receptor (-logIC50 5-HT1A) was 31.6 nM; at serotonin 2 receptor it was 550 nM.
Turning to `O=C1CC2(CCCC2)CC(=O)N1CCCCN1CCN(c2ncccn2)CC1` [Buspirone], the “Apomorphine Induced Stereotypic Behavior, sum of scores” value in data set [6] (10 mg/kg peroral, control 14.4 ± 0.9) came to 10.3; in data set [6] (20 mg/kg peroral, control 14.4 ± 0.9 (Comp. 1: 16.0 ± 1.1)), 0.7; in data set [6] (40 mg/kg peroral, control 14.4 ± 0.9), 0.2. Moreover, the “Antidopamine action” value in data set [6] (peroral, apomorphine 0.5 mg/kg s.c.) is given as “stereotypic behavior induced by apomorphine was intensely compelled”. The change in vivo at 20 mg/kg in the data set on S.D. line male rats [2] was 37.5 ± 4.7%. The inhibition in vivo at 20 mg/kg in the data set on S.D. line male rats [3] was -25.2 ± 3.9%.
For the compound `COc1cccc2c1OCC(CNCCNC(=O)C13CC4CC(CC(C4)C1)C3)O2` (centres unmarked) [Compound 6, N-{[2-(5-methoxy-1,4-benzodioxan-2-ylmethyl)amino]ethyl}tricyclo[3,3,1^3, ^7]decane-1-carboxyamide], in the data set on S.D. line male rats [2], the change in vivo at 20 mg/kg came to 28.7 ± 9.5%. Besides, in the data set on S.D. line male rats [3], the inhibition in vivo at 20 mg/kg came to 82.2 ± 6.6% and the “Antidepressant effect” value is given as “better antidepressant effects than WY-50324”. For the same compound, the IC50 on serotonin 1A receptor (setting [7]) was 4.07 nM. The IC50 on serotonin 2 receptor is 75.9 nM.
Take `O=C(NCCNCC1COc2ccccc2O1)C12CC3CC(CC(C3)C1)C2` (centres unmarked) [Compound 2, N-{[2-(1,4-benzodioxan-2-ylmethyl)amino]ethyl}tricyclo[3,3,1,1^3, ^7]decane-1-carboxyamide]: in the data set with S.D. line male rats [2], the change in vivo at 20 mg/kg stood at 39.3 ± 10.8% and the “Antianxiety effect” value is recorded as “almost comparable effects to WY-50324”. Moreover, in the data set on S.D. line male rats [3], the inhibition in vivo at 20 mg/kg amounted to 85 ± 8.5% and the “Antidepressant effect” value is “better antidepressant effects than WY-50324”. At serotonin 1A receptor (setting [7]), the IC50 was 302 nM. Also, the IC50 on serotonin 2 receptor is 35.5 nM.
